From patent US10683329B2, “Dual-site BACE1 inhibitors” (priority 2014, dated 2020) come the findings set out here.

The structures appear in SMILES notation. Where a SMILES comes first, the peptide text is derived from it. [ ]: non-standard residue; d: D form. The star is where a group is joined. Succinyl(4-O-cholesteryl) = CC(C)CCC[C@@H](C)[C@H]1CC[C@H]2[C@@H]3CC=C4C[C@@H](OC(=O)CCC(=O)*)CC[C@]4(C)[C@H]3CC[C@]12C; Sta = CC(C)C[C@H](N)[C@@H](O)CC(=O)O; PEG4 = NCCOCCOCCOCCOCCC(=O)O; PEG3 = NCCOCCOCCOCCC(=O)O

The target in this test is T1, BACE1 (Homo sapiens, UniProt P56817).
T1 construct: Human HEK293 cells which are stably transfected with a vector expressing a cDNA of the human APP wt gene (APP695); endogenous in cells; host or cells: HEK293 (human), stably transfected with human APP695 wt
T1 sequence (P56817 46-501): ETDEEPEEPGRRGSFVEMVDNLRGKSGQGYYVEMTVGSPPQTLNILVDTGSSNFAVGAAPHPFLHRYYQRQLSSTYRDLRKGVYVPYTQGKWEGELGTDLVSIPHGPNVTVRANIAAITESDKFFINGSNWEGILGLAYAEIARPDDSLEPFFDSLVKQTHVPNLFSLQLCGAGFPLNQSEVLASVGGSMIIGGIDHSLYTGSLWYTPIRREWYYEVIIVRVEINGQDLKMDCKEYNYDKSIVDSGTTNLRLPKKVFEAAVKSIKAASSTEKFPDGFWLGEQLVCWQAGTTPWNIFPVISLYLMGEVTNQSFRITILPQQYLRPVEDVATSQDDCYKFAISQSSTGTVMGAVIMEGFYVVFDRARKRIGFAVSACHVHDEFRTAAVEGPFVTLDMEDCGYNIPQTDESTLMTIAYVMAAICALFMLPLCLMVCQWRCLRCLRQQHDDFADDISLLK
Briefly: Cellular Aβ-lowering assay (Aβ40 ELISA of culture supernatant). It is filed as cell-based. To be noted: Aβ40 in supernatant of human HEK293 cells stably transfected with human APP wt (APP695); 18-20 hrs incubation; read-out: IC 50. The method, then: The compounds were investigated in accordance with the test given hereinafter.
Cellular Aβ-Lowering Assay:
Human HEK293 cells which are stably transfected with a vector expressing a cDNA of the human APP wt gene (APP695) were used to assess the potency of the compounds in a cellular assay. The cells were seeded in 96-well microtiter plates in cell culture medium (Iscove, plus 10% (v/v) fetal bovine serum, glutamine, penicillin/streptomycin) to about 80% confluence and the compounds were added at a 10× concentration in 1/10 volume of medium without FCS containing 8% DMSO (final concentration of DMSO was kept at 0.8% v/v). After 18-20 hrs incubation at 37° C. and 5% CO2 in a humidified incubator the culture supernatant was harvested for the determination of Aβ40 concentrations. 96 well ELISA plates (e.g., Nunc MaxiSorb) were coated with monoclonal antibody which specifically recognize the C-terminal end of Aβ40 (Brockhaus et al., NeuroReport 9; 1481-1486; 1998). After blocking of non-specific binding sites with e.g. 1% BSA and washing, the culture supernatants were added in suitable dilutions together with a horseradish peroxidase-coupled Aβ detection antibody (e.g., antibody 4G8, Senetek, Maryland Heights, Mo.) and incubated for 5 to 7 hrs. Subsequently the wells of the microtiter plate were washed extensively with Tris-buffered saline containing 0.05% Tween 20 and the assay was developed with tetramethylbenzidine/H2O2 in citric acid buffer. After stopping the reaction with one volume 1 N H2SO4 the reaction was measured in an ELISA reader at 450 nm wavelength. The concentrations of Aβ in the culture supernatants were calculated from a standard curve obtained with known amounts of pure Aβ peptide.
`CC[C@H](C)[C@H](NC(=O)[C@H](Cc1ccccc1)NC(=O)[C@H](Cc1ccc(O)cc1)NC(=O)[C@@H]1CCCN1C(=O)[C@@H](N)Cc1ccc(O)cc1)C(=O)N1CCC[C@H]1C(=O)N[C@@H](CC(C)C)C(=O)N[C@@H](CCCCN)C(=O)NCC(=O)NCC(=O)N[C@@H](CCC(=O)O)C(=O)N[C@H](C(=O)N[C@@H](CC(N)=O)C(=O)N[C@@H](CC(C)C)[C@@H](O)CC(=O)N[C@H](C(=O)N[C@@H](C)C(=O)N[C@@H](CCC(=O)O)C(=O)N1CCC[C@@H]1C(=O)N[C@@H](CCCCNC(=O)CCC(=O)O[C@H]1CC[C@@]2(C)C(=CC[C@H]3[C@@H]4CC[C@H]([C@H](C)CCCC(C)C)[C@@]4(C)CC[C@@H]32)C1)C(N)=O)C(C)C)C(C)C` [Example 40, Tyr-Pro-Tyr-Phe-Ile-Pro-Leu-Lys-Gly-Gly-Glu-Val-Asn-Sta-Val-Ala-Glu-DPro-Lys(Chol)-NH2]: the IC50 is 0.0235 nM. Regarding `CC[C@H](C)[C@H](NC(=O)[C@H](Cc1ccccc1)NC(=O)[C@H](Cc1ccc(O)cc1)NC(=O)[C@@H]1CCCN1C(=O)[C@@H](N)CCCCN)C(=O)N1CCC[C@H]1C(=O)N[C@@H](CC(C)C)C(=O)NCC(=O)N[C@H](CCCCN)C(=O)NCC(=O)N[C@@H](CCC(=O)O)C(=O)N[C@H](C(=O)N[C@@H](CC(N)=O)C(=O)N[C@@H](CC(C)C)[C@@H](O)CC(=O)N[C@H](C(=O)N[C@@H](C)C(=O)N[C@@H](CCC(=O)O)C(=O)N1CCC[C@@H]1C(=O)N[C@@H](CCCCNC(=O)CCC(=O)O[C@H]1CC[C@@]2(C)C(=CC[C@H]3[C@@H]4CC[C@H]([C@H](C)CCCC(C)C)[C@@]4(C)CC[C@@H]32)C1)C(N)=O)C(C)C)C(C)C` [Example 48, Lys-Pro-Tyr-Phe-Ile-Pro-Leu-Gly-DLys-Gly-Glu-Val-Asn-Sta-Val-Ala-Glu-DPro-Lys(Chol′estert)-NH2] (H-KPYFIPLG[dK]GEVN[Sta]VAE[dP]K(Succinyl(4-O-cholesteryl))-NH2), the IC50 is 0.02 nM.

Turning to `CC[C@H](C)[C@H](NC(=O)[C@H](Cc1ccccc1)NC(=O)[C@H](Cc1ccc(O)cc1)NC(=O)[C@@H]1CCCN1C(=O)[C@@H](N)Cc1ccc(O)cc1)C(=O)N1CCC[C@H]1C(=O)N[C@@H](CC(C)C)C(=O)NCCOCCOCCOCCC(=O)N[C@@H](CCC(=O)O)C(=O)N[C@H](C(=O)N[C@@H](CC(N)=O)C(=O)N[C@@H](CC(C)C)[C@@H](O)CC(=O)N[C@H](C(=O)N[C@@H](C)C(=O)N[C@@H](CCC(=O)O)C(=O)N1CCC[C@@H]1C(=O)N[C@@H](CCCCNC(=O)CCC(=O)O[C@H]1CC[C@@]2(C)C(=CC[C@H]3[C@@H]4CC[C@H]([C@H](C)CCCC(C)C)[C@@]4(C)CC[C@@H]32)C1)C(N)=O)C(C)C)C(C)C` [Example 13, Tyr-Pro-Tyr-Phe-Ile-Pro-Leu-PEG(3)-Glu-Val-Asn-Sta-Val-Ala-Glu-DPro-Lys(Chol)-NH2] (H-YPYFIPL[PEG3]EVN[Sta]VAE[dP]K(Succinyl(4-O-cholesteryl))-NH2), the IC50 was found to be 0.043 nM.

In the case of `CC[C@H](C)[C@H](NC(=O)[C@H](Cc1ccccc1)NC(=O)[C@H](Cc1ccc(O)cc1)NC(=O)[C@@H]1CCCN1C(=O)[C@@H](N)Cc1ccc(O)cc1)C(=O)N1CCC[C@H]1C(=O)N[C@@H](CC(C)C)C(=O)NCCOCCOCCOCCOCCC(=O)N[C@@H](CCC(=O)O)C(=O)N[C@H](C(=O)N[C@@H](CC(N)=O)C(=O)N[C@@H](CC(C)C)[C@@H](O)CC(=O)N[C@H](C(=O)N[C@@H](C)C(=O)N[C@@H](CCC(=O)O)C(=O)N1CCC[C@@H]1C(=O)N[C@@H](CCCCNC(=O)CCC(=O)O[C@H]1CC[C@@]2(C)C(=CC[C@H]3[C@@H]4CC[C@H]([C@H](C)CCCC(C)C)[C@@]4(C)CC[C@@H]32)C1)C(N)=O)C(C)C)C(C)C` [Example 14, Tyr-Pro-Tyr-Phe-Ile-Pro-Leu-PEG(4)-Glu-Val-Asn-Sta-Val-Ala-Glu-DPro-Lys(Chol)-NH2] (H-YPYFIPL[PEG4]EVN[Sta]VAE[dP]K(Succinyl(4-O-cholesteryl))-NH2), the IC50 turned out to be 0.027 nM. As to `CC[C@H](C)[C@H](NC(=O)[C@H](Cc1ccccc1)NC(=O)[C@H](Cc1ccc(O)cc1)NC(=O)[C@@H]1CCCN1C(=O)[C@@H](N)Cc1ccc(O)cc1)C(=O)N1CCC[C@H]1C(=O)N[C@@H](CC(C)C)C(=O)NCC(=O)NCC(=O)NCC(=O)NCC(=O)N[C@@H](CCC(=O)O)C(=O)N[C@H](C(=O)N[C@@H](CC(N)=O)C(=O)N[C@@H](CCSC)[C@@H](O)CC(=O)N[C@H](C(=O)N[C@@H](C)C(=O)N[C@@H](CCC(=O)O)C(=O)N[C@H](Cc1ccccc1)C(=O)N[C@@H](CCCCNC(=O)CCC(=O)O[C@H]1CC[C@@]2(C)C(=CC[C@H]3[C@@H]4CC[C@H]([C@H](C)CCCC(C)C)[C@@]4(C)CC[C@@H]32)C1)C(N)=O)C(C)C)C(C)C` [Example 24, Tyr-Pro-Tyr-Phe-Ile-Pro-Leu-Gly-Gly-Gly-Gly-Glu-Val-Asn-MetSta-Val-Ala-Glu-DPhe-Lys(Chol)-NH2], the IC50 was determined as 0.052 nM. The same measure for `CC[C@H](C)[C@H](NC(=O)[C@H](Cc1ccccc1)NC(=O)[C@H](Cc1ccc(O)cc1)NC(=O)[C@@H]1CCCN1C(=O)[C@@H](N)Cc1ccc(O)cc1)C(=O)N1CCC[C@H]1C(=O)N[C@@H](CC(C)C)C(=O)NCC(=O)N[C@H](C)C(=O)NCC(=O)N[C@@H](CCC(=O)O)C(=O)N[C@H](C(=O)N[C@@H](CC(N)=O)C(=O)N[C@@H](CC(C)C)[C@@H](O)CC(=O)N[C@H](C(=O)N[C@@H](C)C(=O)N[C@@H](CCC(=O)O)C(=O)N1CCC[C@@H]1C(=O)N[C@@H](CCCCNC(=O)CCC(=O)O[C@H]1CC[C@@]2(C)C(=CC[C@H]3[C@@H]4CC[C@H]([C@H](C)CCCC(C)C)[C@@]4(C)CC[C@@H]32)C1)C(N)=O)C(C)C)C(C)C` [Example 53, Tyr-Pro-Tyr-Phe-Ile-Pro-Leu-Gly-DAla-Gly-Glu-Val-Asn-Sta-Val-Ala-Glu-DPro-Lys(Chol′ester′)-NH2]: 0.02 nM.
